The values below come from US20190375708A1 (VenatoRx Pharmaceuticals, Inc., priority 2018, published 2019).

For data set [1], the system named is HBV replication in HepAD38 cells. Description: Anti-HBV replication assay in HepAD38 cells (QPCR of extracellular HBV DNA). The data set is classed as cell-based, HBV (genotype D, serotype ayw). As to conditions: Hepatitis B virus, 168 h, 7 days incubation, extracellular HBV DNA by QPCR, read-out: Anti-HBV EC50. Summed up: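 HepAD38 cells (HepG2 carrying tet-repressible HBV genotype D genome) induced by tetracycline withdrawal, treated 7 days at 37 °C with compound ([…], 1-log10 dilutions). Extracellular HBV DNA quantified by QPCR against a standard curve, normalised to DMSO; EC50 from 4-parameter fit.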

Data set [2] in a line: In vitro cytotoxicity assay (MTT cell viability) in HepG2 cells. As to conditions: human. The data set is classed as cell-based, human. A digest of the protocol:
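Viability measured by MTT conversion, absorbance at 492 nm, as percent of vehicle-treated wells. Compounds spanned 30 μM to 1.0 nM in half-log steps over a 7-day exposure of parental HepG2 cells; CC50 derived by 4-parameter curve fit.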

Bounds are passed on as bounds.

Usually EC50 stands for the concentration needed to bring the measured effect to its halfway point. One may read the CC50 as the concentration at which the toxic effect on the cells reaches its halfway point. Lower therefore signals harm at low concentration. Turning to `Cc1c(C(=O)Nc2ccc(F)c(F)c2)c2n(c1C(=O)C(=O)NC1(CO)CC(F)(F)C1)CCCC2` [Example 459, 3-(2-((3,3-difluoro-1-(hydroxymethyl)cyclobutyl)amino)-2-oxoacetyl)-N-(3,4-difluorophenyl)-2-methyl-5,6,7,8-tetrahydroindolizine-1-carboxamide], the EC50 in data set [1] lay within 50 to 499 nM. Also, the CC50 at 7 days in data set [2] fell in the range of 5000 to 30000 nM.

Turning to `Cc1cc(NC(=O)c2c(C)c(C(=O)C(=O)NC3C(=O)NCC3(C)C)n(C)c2C)ccc1F` (centres unmarked) [Example 679, 5-(2-((4,4-dimethyl-2-oxopyrrolidin-3-yl)amino)-2-oxoacetyl)-N-(4-fluoro-3-methylphenyl)-1,2,4-trimethyl-1H-pyrrole-3-carboxamide], the EC50 in data set [1] is < 50 nM. Moreover, the CC50 at 7 days in data set [2] was > 30000 nM.

As to `Cc1cc(NC(=O)c2c(C)c(C(=O)C(=O)N[C@@H]3C[C@H](O)[C@@H](O)[C@H]3O)n(C)c2C)ccc1F` [Example 712, N-(4-fluoro-3-methylphenyl)-1,2,4-trimethyl-5-(2-oxo-2-(((1R,2S,3R,4S)-2,3,4-trihydroxycyclopentyl)amino)acetyl)-1H-pyrrole-3-carboxamide], the EC50 in data set [1] was < 50 nM. Also, the CC50 at 7 days in data set [2] is > 30000 nM.

For the compound `CC(=O)N1CC[C@H](NC(=O)C(=O)c2c(C)c(C(=O)Nc3ccc(F)c(C)c3)c(C)n2C)C1` [Example 666, (S)-5-(2-((1-acetylpyrrolidin-3-yl)amino)-2-oxoacetyl)-N-(4-fluoro-3-methylphenyl)-1,2,4-trimethyl-1H-pyrrole-3-carboxamide], in data set [1], the EC50 was < 50 nM. Also, in data set [2], the CC50 at 7 days is > 30000 nM.

As to `Cc1c(C(=O)Nc2cccc(C(F)F)c2)c(C)n(C)c1C(=O)C(=O)N[C@@H]1CC[C@@H](O)C1` [Example 721, N-(3-(difluoromethyl)phenyl)-5-(2-(((1R,3R)-3-hydroxycyclopentyl)amino)-2-oxoacetyl)-1,2,4-trimethyl-1H-pyrrole-3-carboxamide], the concentration for a half-maximal effect (EC50) in data set [1] was < 50 nM. Also, the CC50 at 7 days in data set [2] was > 30000 nM.

`Cc1cc(NC(=O)c2c(C)c(C(=O)C(=O)N[C@H](C)[C@@H](C)O)n(C)c2C)ccc1F` [Example 199, N-(4-fluoro-3-methylphenyl)-5-(2-(((2R,3R)-3-hydroxybutan-2-yl)amino)-2-oxoacetyl)-1,2,4-trimethyl-1H-pyrrole-3-carboxamide]: the EC50 in data set [1] was < 50 nM. For the same compound, in data set [2], the CC50 at 7 days is > 30000 nM.

As for `Cc1cc(NC(=O)c2c(C)c(C(=O)C(=O)N[C@H]3CCC[C@H]3O)n3c2CCCC3)ccc1F` [Example 440, N-(4-fluoro-3-methylphenyl)-3-(2-(((1S,2R)-2-hydroxycyclopentyl)amino)-2-oxoacetyl)-2-methyl-5,6,7,8-tetrahydroindolizine-1-carboxamide], in data set [1], the EC50 lay within 50 to 499 nM. In data set [2], this compound registered a CC50 at 7 days of 5000 to 30000 nM.

Regarding `Cc1cc(NC(=O)c2c(C)c(C(=O)C(=O)N[C@H](CO)[C@@H](C)O)n(CCF)c2C)ccc1F` [Example 177, 5-(2-(((2R,3R)-1,3-dihydroxybutan-2-yl)amino)-2-oxoacetyl)-N-(4-fluoro-3-methylphenyl)-1-(2-fluoroethyl)-2,4-dimethyl-1H-pyrrole-3-carboxamide], the EC50 in data set [1] lay in the range of 50 to 499 nM. Moreover, the CC50 at 7 days in data set [2] is 5000 to 30000 nM.

For the compound `Cc1cnc(NC(=O)c2c(C)c(C(=O)C(=O)NC3(CO)CCC3)n3c2CCCC3)s1` [Example 750], the EC50 in data set [1] lay within 50 to 499 nM. Further, the CC50 at 7 days in data set [2] was > 30000 nM.

With `Cc1noc(C(NC(=O)C(=O)c2cc(C(=O)Nc3ccc(F)c(C)c3)c3n2CCCC3)C(C)C)n1` (centres unmarked) [Example 394, N-(4-fluoro-3-methylphenyl)-3-(2-((2-methyl-1-(3-methyl-1,2,4-oxadiazol-5-yl)propyl)amino)-2-oxoacetyl)-5,6,7,8-tetrahydroindolizine-1-carboxamide], in data set [1], the half-maximal effective concentration (EC50) lay within 50 to 499 nM. In addition, the cytotoxic concentration (CC50) at 7 days in data set [2] was > 30000 nM.

Consider `Cc1cc(NC(=O)c2c(C)c(C(=O)C(=O)NC(C)(C)C(F)(F)F)n(C)c2C)ccc1F` [Example 9, N-(4-fluoro-3-methylphenyl)-1,2,4-trimethyl-5-(2-oxo-2-((1,1,1-trifluoro-2-methylpropan-2-yl)amino)acetyl)-1H-pyrrole-3-carboxamide], for which the EC50 in data set [1] was < 50 nM. The CC50 at 7 days in data set [2] was > 30000 nM.

For `Cc1noc([C@H](C)NC(=O)C(=O)c2c(C)c(C(=O)Nc3ccc(F)c(Cl)c3)c3n2CCCC3)n1` [Example 446, (S)-N-(3-chloro-4-fluorophenyl)-2-methyl-3-(2-((1-(3-methyl-1,2,4-oxadiazol-5-yl)ethyl)amino)-2-oxoacetyl)-5,6,7,8-tetrahydroindolizine-1-carboxamide], in data set [1], the EC50 lay within 50 to 499 nM. In addition, in data set [2], the CC50 at 7 days is 5000 to 30000 nM.

As to `O=C(N[C@H]1COC[C@@H]1O)C(=O)c1c(Cl)c(C(=O)Nc2ccc(F)c(F)c2)c2n1CCCC2` [Example 518, 2-chloro-N-(3,4-difluorophenyl)-3-(2-(((3S,4R)-4-hydroxytetrahydrofuran-3-yl)amino)-2-oxoacetyl)-5,6,7,8-tetrahdyroindolinzie-1-carboxamide], the EC50 in data set [1] is 50 to 499 nM. In data set [2], the CC50 at 7 days lay within 5000 to 30000 nM.

Consider `CC[C@@H](CO)NC(=O)C(=O)c1c(C)c(C(=O)Nc2ccc(F)c(C)c2)c(C)n1CCF` [Example 180, (S)-N-(4-fluoro-3-methylphenyl)-1(2-fluoroethyl)-5-(2-((1-hydroxybutan-2-yl)amino)-2-oxoacetyl)-2,4-dimethyl-1H-pyrrole-3-carboxamide], for which the EC50 in data set [1] was < 50 nM. In data set [2], the CC50 at 7 days was 5000 to 30000 nM.

As for `Cc1cc(NC(=O)c2c(Cl)c(C(=O)C(=O)NC(C)(C)CO)n3c2CCC3)cnc1F` [Example 575, 6-chloro-N-(6-fluoro-5-methylpyridin-3-yl)-5-(2-((1-hydroxy-2-methylpropan-2-yl)amino)-2-oxoacetyl)-2,3-dihydro-1H-pyrrolizine-7-carboxamide], in data set [1], the EC50 is 500 to 1000 nM. In data set [2], the CC50 at 7 days was > 30000 nM.

On to `Cc1cc(NC(=O)c2cc(C(=O)C(=O)NC(C)(C)C)n3c2CN(S(C)(=O)=O)CC3)ccc1F` [Example 589, 6-(2-(tert-butylamino)-2-oxoacetyl)-N-(4-fluoro-3-methylphenyl)-2-(methylsulfonyl)-1,2,3,4-tetrahydropyrrolo[1,2-a]pyrazine-8-carboxamide], for which the EC50 in data set [1] is 500 to 1000 nM. Further, in data set [2], the CC50 at 7 days was > 30000 nM.

Consider `Cc1c(C(=O)Nc2ccc(F)c(F)c2)c2n(c1C(=O)C(=O)N[C@H]1C[C@H](O)C1)CCCC2` [Example 456, N-(3,4-difluorophenyl)-3-(2-(((1r,3r)-3-hydroxycyclobutyl)amino)-2-oxoacetyl)-2-methyl-5,6,7,8-tetrahydroindolizine-1-carboxamide], for which the EC50 in data set [1] fell in the range of 500 to 1000 nM. The cytotoxic concentration (CC50) at 7 days in data set [2] is > 30000 nM.

Turning to `Cc1c(C(=O)Nc2ccc(F)nc2)c(C)n(C)c1C(=O)C(=O)NC(C)(C)C(F)(F)F` [Example 121, N-(6-fluoropyridin-3-yl)-1,2,4-trimethyl-5-(2-oxo-2-((1,1,1-trifluoro-2-methylpropan-2-yl)amino)acetyl)-1H-pyrrole-3-carboxamide], the EC50 in data set [1] was < 50 nM. The CC50 at 7 days in data set [2] is > 30000 nM.

Consider `Cc1cc(NC(=O)c2c(C)c(C(=O)C(=O)NC(C)(C)C(N)=O)n(CCF)c2C)ccc1F` [Example 117, 5-(2-((1-amino-2-methyl-1-oxopropan-2-yl)amino)-2-oxoacetyl)-N-(4-fluoro-3-methylphenyl)-1-(2-fluoroethyl)-2,4-dimethyl-1H-pyrrole-3-carboxamide], for which the EC50 in data set [1] fell in the range of 50 to 499 nM. In addition, the CC50 at 7 days in data set [2] was > 30000 nM.

Take `Cc1cc(NC(=O)c2c(C)c(C(=O)C(=O)NC34CC5CC(CC3C5)C4)n(C)c2C)ccc1F` [Example 18, N-(4-fluoro-3-methylphenyl)-5-(2-(((2R,3as,5S,6as)-hexahydro-2,5-methanopentalen-3a(1H)-yl)amino)-2-oxoacetyl)-1,2,4-trimethyl-1H-pyrrole-3-carboxamide]: in data set [1], the concentration giving a half-maximal response (EC50) is < 50 nM. Further, the CC50 at 7 days in data set [2] is > 30000 nM.

Consider `O=C(N[C@H]1COC[C@@H]1O)C(=O)c1c(Cl)c(C(=O)Nc2ccc(F)c(Cl)c2)c2n1CCCC2` [Example 513, 2-chloro-N-(3-chloro-4-fluorophenyl)-3-(2-(((3S,4R)-4-hydroxytetrahydrofuran-3-yl)amino)-2-oxoacetyl)-5,6,7,8-tetrahydroindolizine-1-carboxamide], for which the EC50 in data set [1] lay within 50 to 499 nM. In addition, the CC50 at 7 days in data set [2] is > 30000 nM.

With `Cc1cc(NC(=O)c2c(C)c(C(=O)C(=O)NCC(C)(O)c3cccs3)n(C)c2C)ccc1F` (centres unmarked) [Example 647, N-(4-fluoro-3-methylphenyl)-5-(2-((2-hydroxy-2-(thiophen-2-yl)propyl)amino)-2-oxoacetyl)-1,2,4-trimethyl-1H-pyrrole-3-carboxamide], in data set [1], the EC50 is < 50 nM. In addition, the CC50 at 7 days in data set [2] is > 30000 nM.

Turning to `Cc1cc(NC(=O)c2c(C)c(C(=O)C(=O)NCCc3c(C)[nH][nH]c3=O)n(C)c2C)ccc1F` [Example 650, N-(4-fluoro-3-methylphenyl)-1,2,4-trimethyl-5-(2-((2-(5-methyl-3-oxo-2,3-dihdyro-1H-pyrazol-4-yl)ethyl)amino)-2-oxoacetyl)-1H-pyrrole-3-carboxamide], the EC50 in data set [1] fell in the range of 50 to 499 nM. In addition, the 50% cytotoxic concentration (CC50) at 7 days in data set [2] was > 30000 nM.

On to `Cc1cc(NC(=O)c2c(C)c(C(=O)C(=O)NC3(C(F)(F)F)CCOCC3)n(CCF)c2C)ccc1F` [Example 230, N-(4-fluoro-3-methylphenyl)-1-(2-fluoroethyl)--2,4-dimethyl-5-(2-oxo-2-((4-(trifluoromethyl)tetrahydro-2H-pyran-4-yl)amino)acetyl)-1H-pyrrole-3-carboxamide], for which the EC50 in data set [1] was < 50 nM. Also, in data set [2], the CC50 at 7 days is > 30000 nM.

Take `Cc1nnc(CCNC(=O)C(=O)c2c(C)c(C(=O)Nc3ccc(F)c(C)c3)c(C)n2C)s1` [Example 356]: the EC50 in data set [1] was < 50 nM. For the same compound, the CC50 at 7 days in data set [2] is > 30000 nM.
